From the supplement of paper PMC10307832

Key:
Test in all cases: relative viability (nuclei count vs DMSO), 5 days (fraction); higher = more cells survive
[1] = compound: COc1cc2nc(N3CCCN(C)CC3)nc(NC3CCN(Cc4ccccc4)CC3)c2cc1OC + COc1cccc2cc(-c3nc([C@H]4CC[C@H](C(=O)O)CC4)n4ncnc(N)c34)[nH]c12 [OSI-027] (partner 0.5 µM)
Summary of the method: (§1)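 Lung cancer cell lines were pin-tool dosed in 1536-well plates on the day after seeding, with either a lone drug or a fixed anchor-drug dose plus five library-drug doses (not always all listed) in √10 steps. Nuclei were counted on 4× images after 5 days. Relative viability is the ratio of treated-well to vehicle-well nuclei counts, with each value a median of duplicate plates.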

[2] = compound: Cc1cc([C@@H](C)Nc2ccccc2C(=O)O)c2nc(N3CCOCC3)cc(=O)n2c1 [AZD6482] + COc1cccc2cc(-c3nc([C@H]4CC[C@H](C(=O)O)CC4)n4ncnc(N)c34)[nH]c12 [OSI-027] (partner 0.5 µM)
Summary of the method: as §1

[3] = compound: COc1cc2nc(N3CCCN(C)CC3)nc(NC3CCN(Cc4ccccc4)CC3)c2cc1OC + C[C@@H](Oc1cc(-c2cnn(C3CCNCC3)c2)cnc1N)c1c(Cl)ccc(F)c1Cl [Crizotinib] (partner 1 µM)
Summary of the method: as §1

[4] = compound: COc1cc2nc(N3CCCN(C)CC3)nc(NC3CCN(Cc4ccccc4)CC3)c2cc1OC + Nc1ncn([C@H]2C[C@H](O)[C@@H](CO)O2)c(=O)n1 [Decitabine] (partner 2 µM)
Summary of the method: as §1

Row | Cell Line | relative viability ([1]; first compound 0.2 µM) | relative viability ([1]; first compound 0.6325 µM) | relative viability ([1]; first compound 2 µM) | relative viability ([1]; first compound 6.325 µM) | relative viability ([2]; first compound 0.08 µM) | relative viability ([2]; first compound 0.253 µM) | relative viability ([2]; first compound 0.8 µM) | relative viability ([2]; first compound 2.53 µM) | relative viability ([2]; first compound 8 µM) | relative viability ([3]; first compound 0.2 µM) | relative viability ([3]; first compound 0.6325 µM) | relative viability ([3]; first compound 2 µM) | relative viability ([3]; first compound 6.325 µM) | relative viability ([4]; first compound 0.2 µM) | relative viability ([4]; first compound 0.6325 µM) | relative viability ([4]; first compound 2 µM) | relative viability ([4]; first compound 6.325 µM)
1 | NCI-H1975 | 0.785 | 0.693 | 0.744 | 0.776 | 0.631 | 0.616 | 0.779 | 0.495 | 0.427 | 1.06 | 0.933 | 1.07 | 0.95 | 0.37 | 0.39 | 0.419 | 0.37
2 | CAL-12T | 0.516 | 0.718 | 0.76 | 0.479 | 0.706 | 0.715 | 0.519 | 0.348 | 0.342 | 0.529 | 0.464 | 0.753 | 0.477 | – | – | – | –
3 | NCI-H1623 | 0.443 | 0.472 | 0.444 | 0.444 | 0.392 | 0.404 | 0.432 | 0.388 | 0.397 | – | – | – | – | – | – | – | –
4 | HCC-44 | 0.604 | 0.571 | 0.576 | 0.586 | 0.46 | 0.511 | 0.574 | 0.37 | 0.296 | 0.839 | 0.721 | 0.813 | 0.819 | 1.01 | 0.855 | 0.936 | 0.944
5 | EKVX | 0.755 | 0.662 | 0.736 | 0.666 | 0.624 | 0.62 | 0.684 | 0.387 | 0.434 | 1.08 | 0.887 | 1.05 | 0.9 | 0.329 | 0.318 | 0.343 | 0.27
6 | NCI-H1651 | 0.706 | 0.686 | 0.729 | 0.714 | 0.601 | 0.59 | 0.655 | 0.567 | 0.539 | 0.862 | 0.849 | 0.896 | 0.859 | 0.587 | 0.598 | 0.639 | 0.617
7 | NCI-H1944 | 0.428 | 0.465 | 0.307 | 0.398 | 0.389 | 0.417 | 0.428 | 0.249 | 0.301 | 1.12 | 1.07 | – | 1.17 | 0.465 | 0.505 | 0.391 | 0.455
8 | NCI-H1703 | – | – | – | – | – | – | – | – | – | 1 | 0.45 | 0.868 | 0.526 | – | – | – | –
9 | Calu-6 | – | – | – | – | – | – | – | – | – | 0.75 | 0.676 | 0.814 | 0.67 | – | – | – | –
10 | EBC-1 | – | – | – | – | – | – | – | – | – | 0.241 | 0.181 | 0.147 | 0.177 | – | – | – | –
11 | SW 1573 | 0.564 | 0.787 | 0.551 | 0.254 | 0.662 | 0.52 | 0.558 | 0.341 | 0.347 | 0.893 | 0.845 | 0.88 | 0.819 | 0.542 | 0.48 | 0.402 | 0.182
12 | A-427 | 0.487 | 0.55 | 0.442 | 0.386 | 0.458 | 0.348 | 0.52 | – | 0.423 | 0.861 | 0.781 | 1.04 | 0.838 | 0.602 | 0.551 | 0.589 | 0.531
13 | NCI-H2347 | 0.461 | 0.304 | 0.452 | 0.472 | 0.222 | 0.268 | 0.317 | 0.194 | 0.223 | 0.794 | 0.675 | 0.634 | 0.626 | 0.586 | 0.617 | 0.615 | 0.606
14 | NCI-H1355 | 0.393 | 0.456 | 0.467 | 0.401 | 0.287 | 0.323 | 0.384 | 0.256 | 0.298 | 1.08 | 1.17 | 1.01 | 0.993 | 0.349 | 0.343 | 0.343 | 0.375
15 | NCI-H358 | 0.734 | 0.831 | 0.845 | 0.626 | 0.711 | 0.557 | 0.662 | 0.257 | 0.312 | 0.495 | 0.642 | 0.903 | 0.639 | 0.203 | 0.2 | 0.2 | 0.158
16 | PC-3 [JPC-3] | 0.767 | 0.746 | 0.764 | 0.764 | 0.654 | 0.732 | 0.723 | 0.502 | 0.633 | 0.972 | 0.974 | 1.11 | 0.869 | 0.863 | 0.805 | 0.718 | 0.674
17 | NCI-H2228 | 0.539 | 0.451 | 0.499 | 0.256 | – | 0.316 | 0.548 | 0.358 | 0.445 | 0.529 | 0.396 | 0.479 | 0.334 | – | – | – | –
18 | HOP-62 | 0.812 | 0.845 | 0.826 | 0.819 | 0.817 | 0.883 | 0.774 | 0.553 | 0.765 | 0.936 | 0.822 | 0.764 | 0.943 | 0.214 | 0.201 | 0.198 | 0.216
19 | HARA | 0.535 | 0.483 | 0.454 | 0.398 | 0.318 | 0.528 | 0.633 | 0.249 | 0.376 | 1.01 | 1.02 | 1.18 | 1.13 | 0.548 | 0.556 | 0.697 | 0.442
